Test results: article PMC12683216, “Using High‐Throughput Screening to Identify Crosslinking Peptides That Control Cell‐Mediated Matrix Degradation” (Advanced Healthcare Materials, 2025)
Read-outs that look alike come from different tables or passages of the source. Where a SMILES comes first, the peptide text is derived from it. [ ]: non-standard residue; d: D form. βAla = NCCC(=O)O

Experiments:
[1] = Soluble peptide degradation, Media condition (cell-conditioned media, LC-MS); format: in vitro ADME, human
Procedure, shortened: (§1)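 Pooled peptide library added to medium conditioned by hUVECs or hMSCs with cells removed. Fraction remaining after 24 h measured by LC-MS (positive-ion ESI). Value is peptide peak area relative to 50 µM non-degradable βFβA6 internal standard.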

[2] = as above; format: in vitro ADME, human; conditions: for remaining at 24 h, 50 µM / remaining at 24 h: human
Procedure, shortened: as §1

MMP-14 = system: T1, MMP-14; experiment: Peptide degradation with added exogenous recombinant MMP-14 (LC-MS); format: in vitro ADME; conditions: human
T1 construct: purchased antibodies.com
Protocol: (§2) To verify that MMP‐14 can degrade the KLVAD‐LM and PanMMP peptides, recombinant MMP‐14 was added to the different peptides, both in PBS and in the Cell and Media culture conditions (Figure 7 ). Peptides were incubated under three conditions: in fresh cell culture media (“Blank”), in media with cells present (“Cells”), and in cell‐conditioned media (“Media”). This was done for both hMSCs and hUVECs, and was also done with and without the addition of exogenous MMP.
(§3) The extent of peptide degradation was quantified for samples both with and without the addition of exogenous MMP‐14. […] Error bars indicate ± standard deviation, N = 3 with technical triplicates.
hUVECs (75000 per well) or hMSCs (36000 per well) were seeded into a 48 well plate, and 500 µL media was added to the wells. […] The peptide libraries were dissolved at a stock solution of 10 mM total peptide content. For libraries containing 38 peptides, 95 µL of the stock solution was added to each well; for libraries with 19 peptides, 47.5 µL was added to each well, and media was taken at 0 and 24 h. Add 4 µL of acetic acid to all collected media in the LC‐MS plates and store them in a −80 °C freezer to prevent further proteolytic degradation. From each sample, 10 µL of crude solution was introduced by the LC‐MS through a Thermo Scientific Vanquish LC System (Thermo Fisher Scientific), which outputted to a Thermo Scientific LTQ XL Linear Ion Trap Mass Spectrometer (Thermo Fisher Scientific). The sampled mixture was trapped on a column (ProntoSIL C18 AQ, 120 Å, 3 µm, 2.0 x 50 mm HPLC Column, PN 0502F184PS030, MAC‐MOD Analytical Inc.). The samples were loaded onto the column with a solvent containing acetonitrile/water, 5:95 (v/v) containing 1% acetic acid at a flow rate of 300 µL min^−1 and held for 1 min. The sample was then eluted from the column with a linear gradient of 5–40% Solvent B (1% acetic acid in acetonitrile) at the same flow rate for 5 min. This was followed by a 1 min ramp up to 100% Solvent B, where it was re‐equilibrated with Solvent A (1% acetic acid) to 5% solvent B over the course of 1 min and held there for 2 min. The column temperature was kept at a constant 29 °C, and the mass spectrometer was operated in positive ion mode. Using a Heated ESI, the Source Voltage was set to 4.1 kV, and the capillary temperature was 350 °C. For non‐library degradation studies, 2.5 µL of 10 mM peptide stock solution for each peptide was added.
To assess the activity of the conditioned media, the media were divided into two equal portions. One portion was used for a standard degradation study, while the other was cultured for an additional 24 h before the PanMMP and KLVADLMASAE were added. After 24 h of incubation, the media were collected for further analysis. To assess the impact of recombinant MMP‐14 on PanMMP and KLVADLMASAE, recombinant MMP‐14 (antibodies.com) was dissolved in the media at a concentration of 0.5 nM. The remaining steps followed the standard degradation study protocol.
(§4) For all degradation studies using soluble peptides, a non‐proteolytically degradable NH2‐βFβAβAβAβAβAβA‐amide (βFβA6) peptide, where βF is β‐phenylalanine and βA is β‐alanine, was added at a 50 µM concentration and used as an internal standard. Peptide degradation ratios were measured by LC‐MS and analyzed by Xcalibur. The relative concentrations of the peptide were calculated by the ratio of the peak area of the peptide and the peak area of βFβA6.

hUVECs = experiment: Soluble peptide degradation, Cells condition (LC-MS); format: in vitro ADME, human; conditions: 24 h, LC-MS; for Fraction of peptide remaining after 24 hours: hUVEC Cells: ratio to βFβA6
Procedure, shortened: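 Pooled synthetic TAILS-derived peptides added to hUVEC or hMSC cultures (Cells) or cell-free conditioned media (Media); MMP-14 inhibitor NSC 405 020 at 10 µM final. Samples taken at 0 and 24 h, acidified, analysed by LC-MS; peak areas normalised to 50 µM βFβA6 internal standard, 24 h/0 h gives fraction remaining.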

[3] = Peptide stability in fresh cell culture media (Blank); format: in vitro ADME; conditions: no cell contact, 24 h, LC-MS
Protocol: as §2, §3
hUVECs (75000 per well) or hMSCs (36000 per well) were seeded into a 48 well plate, and 500 µL media was added to the wells. […] The peptide libraries were dissolved at a stock solution of 10 mM total peptide content. […]
as §4

[4] = Figure 3C, individually synthesized soluble peptide, 50 µM, hMSC-conditioned media without cells, 24 h, LC-MS, ratio to βFβA6, N = 6
[5] = human, hMSC-conditioned media without cells (Media condition), Figure 3B heatmap, split-and-pool libraries KLVADX1X2ASAE in hMSC-conditioned media without cells, 24 h, LC-MS, ratio to βFβA6, N = 2, read-out: Fraction of peptide remaining after 24 hours: hMSC Media
[6] = human, Figure 2B heatmap, pooled TAILS-derived soluble peptides in 24 h hMSC-conditioned media without cells, 24 h, LC-MS, ratio to βFβA6 internal standard, 24 h / 0 h, N = 5, read-out: Fraction of peptide remaining at 24 hours: hMSC Media
[7] = Figure 2B heatmap, pooled TAILS-derived soluble peptides in 24 h hUVEC-conditioned media without cells, 24 h, LC-MS, ratio to βFβA6 internal standard, 24 h / 0 h, N = 5, read-out: Fraction of peptide remaining at 24 hours: hUVEC Media
[8] = Figure 3C, individually synthesized soluble peptide, 50 µM, hUVEC-conditioned media without cells, 24 h, LC-MS, ratio to βFβA6, N = 6
[9] = Figure 3C, 50 µM soluble peptide, 24 h, LC-MS, N = 6

## CSCC[C@H](NC(=O)[C@H](CC(C)C)NC(=O)[C@H](CC(=O)O)NC(=O)[C@H](C)NC(=O)[C@@H](NC(=O)[C@H](CC(C)C)NC(=O)[C@H](CCCCN)NC(=O)CCNC(C)=O)C(C)C)C(=O)N[C@@H](C)C(=O)N[C@@H](CO)C(=O)N[C@@H](C)C(=O)N[C@@H](CCC(=O)O)C(=O)NCCC(N)=O [KLVAD-LM] (Ac-[βAla]KLVADLMASAE[βAla]-NH2)
[1]
  degraded across all Media conditions: less than 10%
[1]; human, cells or culture medium
  remaining at 24 h, 50 µM: 97%
[2]
  degraded across all Media conditions: less than 10%
[2]; cells or culture medium
  remaining at 24 h, 50 µM: 93%
MMP-14; cells or culture medium, peptide remaining in hMSC conditioned media with added MMP‐14
  remaining at 24 h, 50 µM: 76%
MMP-14; cells or culture medium, peptide remaining in hUVEC conditioned media with added MMP‐14
  remaining at 24 h, 50 µM: 69%

## CC(=O)NCCC(=O)N[C@@H](CCCCN)C(=O)N[C@@H](CC(C)C)C(=O)N[C@H](C(=O)N[C@@H](C)C(=O)N[C@@H](CC(=O)O)C(=O)N[C@@H](CC(N)=O)C(=O)N[C@@H](Cc1ccc(O)cc1)C(=O)N[C@@H](C)C(=O)N[C@@H](CO)C(=O)N[C@@H](C)C(=O)N[C@@H](CCC(=O)O)C(=O)NCCC(N)=O)C(C)C [KLVAD-NY] (Ac-[βAla]KLVADNYASAE[βAla]-NH2)
hUVECs; Figure 3B heatmap, split-and-pool libraries KLVADX1X2ASAE in media on hUVECs, N = 2
  Fraction of peptide remaining after 24 hours: hUVEC Cells: 0.91
[1]; [4]
  Fraction of peptide remaining after 24 hours: hMSC Media: 0.92
[1]; [5]
  remaining at 24 h: 84%
[1]; [6]
  remaining at 24 h: 97%
[1]; human, Figure 2B screen, hMSC-conditioned media, 24 h, LC-MS
  metabolised at 24 h: < 3%
[2]; Figure 2B screen, hUVEC-conditioned media, 24 h, LC-MS
  degradation in Media condition: less than 3%
[2]; Figure 3B heatmap, split-and-pool libraries KLVADX1X2ASAE in hUVEC-conditioned media without cells, 24 h, LC-MS, ratio to βFβA6, N = 2
  Fraction of peptide remaining after 24 hours: hUVEC Media: 0.98
[2]; hUVEC-conditioned media without cells (Media condition), Figure 3C, individually synthesized soluble peptide, 50 µM, hUVEC-conditioned media without cells, 24 h, LC-MS, ratio to βFβA6, N = 6, read-out: Fraction of peptide remaining after 24 hours: hUVEC Media
  remaining at 24 h, 50 µM: 102%
[2]; [7]
  remaining at 24 h: 100%

## CC(=O)NCCC(=O)N[C@@H](CCCCN)C(=O)N[C@@H](CC(C)C)C(=O)N[C@H](C(=O)N[C@@H](C)C(=O)N[C@@H](CC(=O)O)C(=O)N1CCC[C@H]1C(=O)N[C@@H](Cc1ccc(O)cc1)C(=O)N[C@@H](C)C(=O)N[C@@H](CO)C(=O)N[C@@H](C)C(=O)N[C@@H](CCC(=O)O)C(=O)NCCC(N)=O)C(C)C [KLVAD-PY] (Ac-[βAla]KLVADPYASAE[βAla]-NH2)
[1]; [5]
  remaining at 24 h: 81%
[1]; human, hMSC-conditioned media without cells (Media condition), Figure 3C, individually synthesized soluble peptide, 50 µM, hMSC-conditioned media without cells, 24 h, LC-MS, ratio to βFβA6, N = 6, read-out: Fraction of peptide remaining after 24 hours: hMSC Media
  remaining at 24 h, 50 µM: 96%
[2]; [8]
  Fraction of peptide remaining after 24 hours: hUVEC Media: 1.11
[2]; hUVEC-conditioned media without cells (Media condition), Figure 3B heatmap, split-and-pool libraries KLVADX1X2ASAE in hUVEC-conditioned media without cells, 24 h, LC-MS, ratio to βFβA6, N = 2, read-out: Fraction of peptide remaining after 24 hours: hUVEC Media
  remaining at 24 h: 118%

## CC[C@H](C)[C@H](NC(=O)CNC(=O)[C@H](CCC(N)=O)NC(=O)[C@@H]1CCCN1C(=O)CNC(=O)CCNC(C)=O)C(=O)N[C@@H](Cc1c[nH]c2ccccc12)C(=O)NCC(=O)N[C@@H](CCC(N)=O)C(=O)NCCC(N)=O [PanMMP, reference compound] (Ac-[βAla]GPQGIWGQ[βAla]-NH2)
hUVECs; Figure 3C, individually synthesized soluble peptide, 50 µM, media on hUVECs, N = 6
  Fraction of peptide remaining after 24 hours: hUVEC Cells: 0.77
hUVECs; NSC 405 020 10 µM
  degradation after 24 h, Cells + Inhibitor, cultured with hUVECs: greater than 2%
[1]; [9]
  peptide remaining, Media condition, hMSCs: 85%
[1]; [4]
  Fraction of peptide remaining after 24 hours: hMSC Media: 0.85
[1]; human, hMSC-conditioned media without cells, no exogenous MMP-14, Figure 7 study, 24 h, LC-MS, N = 3 with technical triplicates, read-out: peptide remaining in hMSC conditioned media without exogenous MMP-14
  remaining at 24 h, 50 µM: 85%
[1]; [6]
  remaining at 24 h: 86%
[2]; [9]
  peptide remaining, Media condition, hUVECs: 89%
[2]; [8]
  Fraction of peptide remaining after 24 hours: hUVEC Media: 0.89
[2]; hUVEC-conditioned media without cells, no exogenous MMP-14, Figure 7 study, 24 h, LC-MS, N = 3 with technical triplicates, read-out: peptide remaining in hUVEC conditioned media without exogenous MMP-14
  remaining at 24 h, 50 µM: 78%
[2]; [7]
  remaining at 24 h: 93%
MMP-14; Figure 7 study, recombinant MMP-14 0.5 nM, 24 h, LC-MS, N = 3 with technical triplicates, read-out: peptide remaining in hMSC conditioned media with added MMP‐14
  remaining at 24 h, 50 µM: 84%
MMP-14; Figure 7 study, recombinant MMP-14 0.5 nM, 24 h, LC-MS, N = 3 with technical triplicates, read-out: peptide remaining in hUVEC conditioned media with added MMP‐14
  remaining at 24 h, 50 µM: 72%
[3]
  degradation in the Blank condition without added MMP‐14 (hydrolytic stability): negligible degradation
